Data set [1] concerns the target Envelope glycoprotein gp160 (Human immunodeficiency virus 1, UniProt Q6QLK5). Nature of the data set: Binding affinity to HIV1 N-terminal 2,2-bipyridine-5-carboxylate-capped Envelope glycoprotein gp41 Fe2(env2.0)3 by C18FL probe based fluorescence quenching assay.
The test system of data set [2] is Human immunodeficiency virus 1. Nature of the data set: Antiviral activity against HIV-1 Bal infected in human MAGI-CCR5 cells assessed as reduction in viral infection after 48 hrs by fluorescence based beta-galactosidase reporter gene assay. As to conditions: Human immunodeficiency virus 1, Bal, MAGI-CCR5, 48 h. The class given is functional, organism-based. On the technique in general: A reporter such as luciferase makes a cellular process visible.

Data set [3] can be described thus: Cytotoxicity against human PBMC by MTS or resazurin dye based assay. The format is cell-based. In general terms: Tetrazolium dyes change colour on reduction, which living cells bring about.
Data set [4] deals with Human immunodeficiency virus 1. The experiment in a line: Antiviral activity against HIV-1 3B infected in human MAGI-CXCR4 cells assessed as reduction in viral infection after 48 hrs by fluorescence based beta-galactosidase reporter gene assay. The class given is functional, organism-based. The note with it: Human immunodeficiency virus 1, 3B.
The nature of data set [5]: Cytotoxicity against human MAGI cells by MTS or resazurin dye based assay. The class given is cell-based.

Ki, IC50 and CC50 data for 33 compounds are collected here from ChEMBL document CHEMBL4325884, “Investigation of the molecular characteristics of bisindole inhibitors as HIV-1 glycoprotein-41 fusion inhibitors” (Eur J Med Chem, 2019).

Chain of Envelope glycoprotein gp160 (Q6QLK5 whole entry): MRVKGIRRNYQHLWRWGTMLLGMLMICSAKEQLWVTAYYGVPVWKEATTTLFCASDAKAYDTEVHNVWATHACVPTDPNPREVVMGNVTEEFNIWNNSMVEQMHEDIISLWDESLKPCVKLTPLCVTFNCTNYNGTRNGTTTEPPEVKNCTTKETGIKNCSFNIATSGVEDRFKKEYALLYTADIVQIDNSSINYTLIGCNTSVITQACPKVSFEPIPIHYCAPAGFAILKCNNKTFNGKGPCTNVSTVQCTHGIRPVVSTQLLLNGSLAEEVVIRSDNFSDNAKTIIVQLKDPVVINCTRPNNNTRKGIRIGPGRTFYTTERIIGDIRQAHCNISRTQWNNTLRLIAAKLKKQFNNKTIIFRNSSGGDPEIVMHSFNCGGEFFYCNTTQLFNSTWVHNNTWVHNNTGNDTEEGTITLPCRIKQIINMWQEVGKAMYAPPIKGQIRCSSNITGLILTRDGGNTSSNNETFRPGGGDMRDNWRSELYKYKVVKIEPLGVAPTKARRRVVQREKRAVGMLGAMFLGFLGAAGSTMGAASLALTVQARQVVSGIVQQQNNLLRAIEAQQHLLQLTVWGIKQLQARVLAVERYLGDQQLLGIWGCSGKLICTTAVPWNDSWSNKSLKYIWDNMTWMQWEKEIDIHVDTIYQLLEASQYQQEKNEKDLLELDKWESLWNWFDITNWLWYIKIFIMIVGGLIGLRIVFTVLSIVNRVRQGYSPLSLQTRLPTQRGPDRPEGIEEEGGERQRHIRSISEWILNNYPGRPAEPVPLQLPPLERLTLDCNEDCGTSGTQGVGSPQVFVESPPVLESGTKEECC

A word on the Ki: it is the dissociation constant of the complex between target and ligand, obtained from inhibition or displacement. A low value points to higher affinity. In general, IC50 refers to the concentration that gives 50% inhibition. As a reminder, the CC50 is the concentration giving 50% cytotoxicity. Read a high CC50 as better tolerance by the cells. In data set [1], `COc1cccc(CNc2cccc(-c3ccc4ccn(Cc5cccc(C(=O)O)c5)c4c3)c2)c1` registered a Ki of 1.5 µM. Further, the IC50 in data set [2] and in data set [4] was above 20 µM in each case. The CC50 in data set [3] was above 10 µM.
With `CC(C)(C)OC(=O)n1ccc2ccc(-c3ccc4ccn(Cc5cccc(C(=O)O)c5)c4c3)cc21`, the affinity in data set [1] corresponds to a Ki of 1.9 µM. The values for the IC50 in data set [2] and in data set [4] were 0.9 µM and 1 µM, respectively. This compound also came in with a CC50 in data set [3] above 20 µM.
As to `Cn1ccc2ccc(-c3ccc4cnn(Cc5cc(F)cc(C(=O)O)c5)c4c3)cc21`, the affinity in data set [1] corresponds to a Ki of 2.1 µM. In addition, the IC50 in data set [2] and in data set [4] was above 20 µM in each case. In data set [3], this compound yielded a CC50 above 20 µM.
`CC(C)(C)OC(=O)Nc1cccc(Cn2ccc3ccc(-c4ccc5ccn(Cc6cccc(C(=O)O)c6)c5c4)cc32)c1`: affinity in data set [1] was put at a Ki of 1.5 µM. Also, the IC50 in data set [2] turned out to be 0.4 µM; in data set [4], 0.5 µM. Moreover, the CC50 in data set [3] was above 20 µM.
On the same counts, the results for `Cc1ccc(S(=O)(=O)n2ccc3ccc(-c4ccc5ccn(Cc6cccc(C(=O)O)c6)c5c4)cc32)cc1` are 1.2 µM, 0.8 µM, 0.9 µM and above 50 µM.
The matching figures for `COC(=O)c1cccc(Cn2ccc3ccc(-c4ccc5cnn(Cc6cccc(C(=O)O)c6)c5c4)cc32)c1`: 3.2 µM, 3.1 µM, 2.5 µM and above 20 µM.
`CC(C)(C)OC(=O)N1CCC(Cn2ccc3ccc(-c4ccc5ccn(Cc6cccc(C(=O)O)c6)c5c4)cc32)CC1` displayed a Ki in data set [1] of 1.2 µM. In addition, the IC50 in data set [2] and in data set [4] was 0.6 µM throughout. The compound further had a CC50 in data set [3] above 20 µM.
`Cn1cc2ccc(-c3ccc4ccn(Cc5cc(F)cc(C(=O)O)c5)c4c3)cc2n1`: the affinity in data set [1] corresponds to a Ki of 6.4 µM. Further, the IC50 in data set [2] is 14 µM; in data set [4], above 20 µM. Moreover, the CC50 in data set [3] is above 20 µM.
`CN(C(=O)OC(C)(C)C)c1cccc(-c2ccc3ccn(Cc4cccc(C(=O)O)c4)c3c2)c1` displayed an inhibitory constant (Ki) in data set [1] of 1.6 µM. Also, the IC50 amounted to 15.6 µM in data set [2] and 11.3 µM in data set [4]. In data set [3], this compound returned a CC50 above 20 µM.
For `COc1cccc(CN(C(=O)OC(C)(C)C)c2cccc(-c3ccc4ccn(Cc5cccc(C(=O)O)c5)c4c3)c2)c1`, in data set [1], the affinity corresponds to a Ki of 0.45 µM. The IC50 in data set [2] was 5.5 µM; in data set [4], 4.2 µM. This compound also yielded a cytotoxic concentration (CC50) in data set [3] above 10 µM.
Take `Nc1ccc(Cn2ccc3ccc(-c4ccc5ccn(Cc6cccc(C(=O)O)c6)c5c4)cc32)cc1`: in data set [1], the affinity corresponds to a Ki of 3.1 µM. Moreover, the figures for the IC50 in data set [2] and in data set [4] were 1.1 µM and 1.3 µM, respectively. The compound further gave a CC50 in data set [3] above 20 µM.
In data set [1], `COc1cccc(CN(C)c2cccc(-c3ccc4ccn(Cc5cccc(C(=O)O)c5)c4c3)c2)c1` returned a Ki of 0.8 µM. Also, the IC50 was determined as 1.6 µM in data set [2] and 1.2 µM in data set [4]. In data set [3], this compound showed a CC50 above 20 µM.
Compound `O=C(O)c1cccc(Cn2ccc3ccc(-c4ccc5ccn(Cc6cccc(OC(F)(F)F)c6)c5c4)cc32)c1` yielded a Ki in data set [1] of 2.3 µM. Further, the IC50 in data set [2] came to 1.4 µM; in data set [4], 1.5 µM. In data set [3], the CC50 is above 20 µM.
Compound `COc1cc(Cn2ccc3ccc(-c4ccc5ccn(Cc6cccc(C(=O)O)c6)c5c4)cc32)cc(C(=O)O)c1` registered a Ki in data set [1] of 0.8 µM. Moreover, the half-maximal inhibitory concentration (IC50) in data set [2] and in data set [4] was above 20 µM in each case. Besides, the CC50 in data set [3] was above 20 µM.
In data set [1], `CC(C)(C)OC(=O)N1CCc2ccc(-c3ccc4ccn(Cc5cccc(C(=O)O)c5)c4c3)cc21` returned an inhibition constant Ki of 0.9 µM. Besides, the results for the IC50 in data set [2] and in data set [4] were 2.3 µM and 2.8 µM, respectively. This compound also displayed a CC50 in data set [3] above 25 µM.
In data set [1], `CC(C)(C)OC(=O)c1cccc(Cn2ccc3ccc(-c4ccc5ccn(Cc6cccc(C(=O)O)c6)c5c4)cc32)c1` registered a Ki of 0.3 µM. In addition, the IC50 in data set [2] and in data set [4] was 0.2 µM each time. In data set [3], this compound registered a CC50 above 10 µM.
As for `Cn1ccc2cc(F)c(-c3ccc4ccn(Cc5cc(F)cc(C(=O)O)c5)c4c3)cc21`, in data set [1], the Ki came to 2 µM. Also, the results for the IC50 in data set [2] and in data set [4] were 9.7 µM and 7.8 µM, respectively. For the same compound, the 50% cytotoxic concentration (CC50) in data set [3] was above 20 µM.
Regarding `Cn1ccc2ccc(-c3ccc4c(c3)N(Cc3cccc(C(=O)O)c3)CC4)cc21`, the affinity in data set [1], expressed as Ki, was 10 µM. Besides, the IC50 in data set [2] and in data set [4] was above 25 µM in each case. In data set [3], this compound showed a CC50 above 50 µM.
`COC(=O)c1cc(Cn2ccc3ccc(-c4ccc5ccn(Cc6cccc(C(=O)O)c6)c5c4)cc32)cc(C(=O)OC)c1` returned a Ki in data set [1] of 1 µM. For the same compound, the IC50 in data set [2] and in data set [4] was 0.6 µM each time. In data set [3], this compound gave a CC50 above 20 µM.
The compound `COC(=O)c1cccc(Cn2ncc3ccc(-c4ccc5ccn(Cc6cccc(C(=O)O)c6)c5c4)cc32)c1` returned a Ki in data set [1] of 1 µM. Also, the IC50 in data set [2] and in data set [4] was 1.4 µM in each case. This compound also yielded a CC50 in data set [3] above 50 µM.
Consider `COc1cccc(CN2CCc3ccc(-c4ccc5ccn(Cc6cccc(C(=O)O)c6)c5c4)cc32)c1`, for which the affinity in data set [1], expressed as Ki, was 3.6 µM. The results for the IC50 in data set [2] and in data set [4] were 1.9 µM and 2.4 µM, respectively. This compound returned a CC50 in data set [3] above 25 µM.
In turn, `COC(=O)c1cccc(Cn2ccc3cc(F)c(-c4ccc5ccn(Cc6cccc(C(=O)O)c6)c5c4)cc32)c1` came in with an inhibitory constant (Ki) in data set [1] of 0.7 µM. Also, the results for the IC50 in data set [2] and in data set [4] were 0.5 µM and 0.4 µM, respectively. This compound also registered a CC50 in data set [3] above 20 µM.
Turning to `COC(=O)c1ccc(Cn2ccc3ccc(-c4ccc5ccn(Cc6cccc(C(=O)O)c6)c5c4)cc32)c(OC)c1`, in data set [1], the affinity, expressed as Ki, was 0.4 µM. Besides, the CC50 in data set [5] and in data set [3] was 25 µM throughout. Further, the IC50 in data set [2] was 4.2 µM; in data set [4] it was 3.1 µM.
Compound `Cn1ncc2ccc(-c3ccc4cnn(Cc5ccc(F)c(C(=O)O)c5)c4c3)cc21` had a Ki in data set [1] of 19 µM. Also, the CC50 in data set [5] and in data set [3] was 200 µM throughout. The IC50 in data set [2] and in data set [4] was above 20 µM each time.
In turn, `COc1cccc(Cn2ccc3ccc(-c4ccc5c(C)cn(Cc6cccc(C(=O)O)c6)c5c4)cc32)c1` registered a Ki in data set [1] of 1.2 µM. For the same compound, the CC50 in data set [5] and in data set [3] was 70 µM throughout. Moreover, the IC50 in data set [2] came out at 10.5 µM; in data set [4], 12.9 µM.
In turn, `COC(=O)c1cc(F)cc(Cn2ccc3ccc(-c4ccc5ccn(Cc6cccc(C(=O)O)c6)c5c4)cc32)c1` gave a Ki in data set [1] of 1 µM. In addition, the IC50 was found to be 0.4 µM in data set [2] and 0.5 µM in data set [4]. For the same compound, the cytotoxic concentration (CC50) in data set [3] is above 20 µM.
Regarding `Cn1ncc2ccc(-c3ccc4ccn(Cc5cc(F)cc(C(=O)O)c5)c4c3)cc21`, the inhibition constant Ki in data set [1] amounted to 2.5 µM. Moreover, the IC50 in data set [2] was 10.1 µM; in data set [4], 11.3 µM. This compound also yielded a CC50 in data set [3] above 20 µM.
The compound `O=C(O)c1cccc(Cn2ccc3ccc(-c4ccc5ccn(Cc6cccc([N+](=O)[O-])c6)c5c4)cc32)c1` registered a Ki in data set [1] of 2.7 µM. Further, the IC50 is 2.8 µM in data set [2] and 3.4 µM in data set [4]. Besides, the CC50 in data set [3] is above 20 µM.
The compound `Cn1ccc2ccc(-c3ccc4ccn(Cc5cc(F)cc(C(=O)O)c5)c4c3)cc21` had a Ki in data set [1] of 3 µM. In addition, the IC50 in data set [2] is 8.2 µM; in data set [4], 9.1 µM. Further, in data set [3], the half-maximal cytotoxic concentration (CC50) is above 20 µM.
As for `CC(=O)Nc1cccc(Cn2ccc3ccc(-c4ccc5ccn(Cc6cccc(C(=O)O)c6)c5c4)cc32)c1`, the Ki in data set [1] is 0.9 µM. Besides, the IC50 in data set [2] came to 4.7 µM; in data set [4], 4.5 µM. In data set [3], this compound displayed a CC50 above 20 µM.
In the case of `COc1cccc(Cn2ccc3ccc(-c4ccc5cn(Cc6cccc(C(=O)O)c6)nc5c4)cc32)c1`, in data set [1], the Ki was found to be 1 µM. For the same compound, the IC50 in data set [2] came to 5.8 µM; in data set [4], 5.5 µM. Also, the CC50 in data set [3] was above 20 µM.
On the same counts, the results for `COc1cccc(Cn2ccc3cc(F)c(-c4ccc5ccn(Cc6cccc(C(=O)O)c6)c5c4)cc32)c1` are 5 µM, 9.4 µM, 7 µM and above 20 µM.
Consider `Cc1cn(C(=O)OC(C)(C)C)c2cc(-c3ccc4ccn(Cc5cccc(C(=O)O)c5)c4c3)ccc12`, for which, in data set [1], the Ki was 4.7 µM. For the same compound, the half-maximal inhibitory concentration (IC50) in data set [2] was 1.2 µM; in data set [4], 1.7 µM. In addition, in data set [3], the CC50 was above 20 µM.
